Reference: BindingDB's records for doi:10.1021/acsmedchemlett.0c00495 (Janssen Research & Development, 2020)

Target: Cannabinoid receptor 2 (Homo sapiens, UniProt P34972)
Assay: Inverse agonist activity at human CB2 receptor expressed in HEK293 cells assessed as forskolin-stimulated cAMP accumulation after 30 mins by HTRF assay

Cannabinoid receptor 2, sequence (P34972 whole entry): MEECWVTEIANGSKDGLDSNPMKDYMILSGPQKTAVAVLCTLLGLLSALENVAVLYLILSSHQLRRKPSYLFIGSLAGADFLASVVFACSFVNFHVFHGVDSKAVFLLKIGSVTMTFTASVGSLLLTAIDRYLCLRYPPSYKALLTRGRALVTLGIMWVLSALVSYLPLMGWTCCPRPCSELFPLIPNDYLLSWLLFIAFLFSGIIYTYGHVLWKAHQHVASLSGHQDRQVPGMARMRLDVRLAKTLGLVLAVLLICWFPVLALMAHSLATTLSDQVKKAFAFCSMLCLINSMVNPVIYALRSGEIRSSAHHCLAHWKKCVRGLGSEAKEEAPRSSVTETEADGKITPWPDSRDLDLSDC

SMILES: Nc1nc(NC2CCN(S(=O)(=O)C(F)(F)F)CC2)c2cc(C(c3ccc(Cl)cc3)c3ccc(Cl)cc3)ccc2n1 [US9682955, 107]
- EC50: > 10 µM
